Laboratory results published in patent US9096492B2, “Hydrated N-fullerene amino acids, method for producing the latter, and pharmaceutical compositions on the basis thereof” (priority 2011, dated 2015).
Like-named read-outs stand apart in the source and are kept apart here.

Legend:
[1] = tested on: solid Ehrlich carcinoma; test: Solid Ehrlich carcinoma in white mice, tumor size dynamics
[2] = rat, in vivo
[3] = Acute toxicity in rats after a single intramuscular injection; assay type: in vivo, Wistar rats
[4] = Chronic toxicity in rats: autopsy and weight coefficients of viscera; conditions: any of the tested doses; after the end of administration
[5] = rat, in vivo; remark: listed apart in the source
[6] = tested on: human lymphoblastoid cells; test: Cytotoxicity in human lymphoblastoid cells model
[7] = tested on: A/Aichi/2/69 (H3N2) influenza virus; test: Induced influenza pneumonia in mice; conditions: intramuscularly 50 mg/kg/day

N-fullerene tris(δ-aminocaproic acid) hydrate [Agent 1]
Tumor size (mm^3) ([1]; 100 mg/kg, day 8 post transplantation): 72.5 mm^3
Tumor size (mm^3) ([1]; 100 mg/kg, day 13 post transplantation): 544.3 mm^3
Tumor size (mm^3) ([1]; 100 mg/kg, day 17 post transplantation): 693.6 mm^3
Tumor size (mm^3) ([1]; 100 mg/kg, day 21 post transplantation): 1250.8 mm^3
Tumor size (mm^3) ([1]; 100 mg/kg, day 24 post transplantation): 1654.3 mm^3
Tumor size (mm^3) ([1]; 100 mg/kg, day 28 post transplantation): 2239.8 mm^3
Tumor size (mm^3) ([1]; 300 mg/kg, day 8 post transplantation): 72.7 mm^3
Tumor size (mm^3) ([1]; 300 mg/kg, day 13 post transplantation): 416.3 mm^3
Tumor size (mm^3) ([1]; 300 mg/kg, day 17 post transplantation): 1224.6 mm^3
Tumor size (mm^3) ([1]; 300 mg/kg, day 21 post transplantation): 1703.4 mm^3
Tumor size (mm^3) ([1]; 300 mg/kg, day 24 post transplantation): 2048.5 mm^3
Tumor size (mm^3) ([1]; 300 mg/kg, day 28 post transplantation): 2525.7 mm^3
Weight coefficients of viscera, Spleen [2]: 5.2 ± 0.7 g/kg body weight
Weight coefficients of viscera, heart [2]: 4.1 ± 0.4 g/kg body weight
Weight coefficients of viscera, kidneys [2]: 6.5 ± 0.4 g/kg body weight
Weight coefficients of viscera, liver [2]: 32.2 ± 1.8 g/kg body weight
Weight coefficients of viscera, lungs [2]: 7.1 ± 0.5 g/kg body weight
Weight coefficients of viscera, thymus [2]: 1.2 ± 0.4 g/kg body weight
weight coefficients of organs versus control [2]: no significant difference was found between experimental and control animals
weight coefficients of viscera versus control [2]: no distinctions between the rats of the experimental groups and the control group
Weight coefficients of viscera, Spleen ([2]; 3 mg/kg): 4.7 ± 0.5 g/kg body weight
Weight coefficients of viscera, heart ([2]; 3 mg/kg): 3.5 ± 0.7 g/kg body weight
Weight coefficients of viscera, kidneys ([2]; 3 mg/kg): 7.2 ± 0.5 g/kg body weight
Weight coefficients of viscera, heart ([2]; 9 mg/kg): 3.8 ± 0.6 g/kg body weight
death during the 14-day observation period ([3]; 5, 50 and 500 mg/kg single i.m.): No death occurred
Animal body weight (M ± SD) ([3]; females, 5 mg/kg single intramuscular, day 0): 163 ± 15.5 g
Animal body weight (M ± SD) ([3]; females, 50 mg/kg single intramuscular, day 0): 165 ± 17.5 g
Animal body weight (M ± SD) ([3]; females, 500 mg/kg single intramuscular, day 0): 160 ± 8.1 g
Animal body weight (M ± SD) ([3]; females, 500 mg/kg single intramuscular, day 7): 169 ± 8.0 g
Animal body weight (M ± SD) ([3]; males, 5 mg/kg single intramuscular, day 7): 228 ± 18.1 g
Animal body weight (M ± SD) ([3]; males, 5 mg/kg single intramuscular, day 14): 276 ± 17.8 g
Animal body weight (M ± SD) ([3]; males, 50 mg/kg single intramuscular, day 7): 228 ± 17.0 g
Animal body weight (M ± SD) ([3]; males, 50 mg/kg single intramuscular, day 14): 279 ± 18.3 g
Animal body weight (M ± SD) ([3]; males, 500 mg/kg single intramuscular, day 14): 258 ± 24.1 g
LD50 ([3]; single intramuscular administration, exceeds the maximal tested dose): > 500 mg/kg
autopsy finding at the injection site (skeletal muscles) [4]: a brownish color of muscle tissue, fascia, and fat layers was noticed
Animal body weight, g (M ± SD) (females, 5 mg/kg single i.m., day 0): 19.1 ± 2. g
Animal body weight, g (M ± SD) (females, 5 mg/kg single i.m., day 7): 20.6 ± 2 g
Animal body weight, g (M ± SD) (females, 5 mg/kg single i.m., day 14): 22.8 ± 2. g
Animal body weight, g (M ± SD) (females, 50 mg/kg single i.m., day 0): 18.6 ± 1. g
Animal body weight, g (M ± SD) (females, 50 mg/kg single i.m., day 7): 19.9 g
Animal body weight, g (M ± SD) (females, 50 mg/kg single i.m., day 14): 21.9 ± 1. g
Animal body weight, g (M ± SD) (females, 500 mg/kg single i.m., day 0): 18.9 ± 1. g
Animal body weight, g (M ± SD) (females, 500 mg/kg single i.m., day 7): 20.7 ± 0 g
Animal body weight, g (M ± SD) (females, 500 mg/kg single i.m., day 14): 22.8 ± 1. g
Animal body weight, g (M ± SD) (males, 5 mg/kg single i.m., day 0): 23.0 ± 2.9 g
Animal body weight, g (M ± SD) (males, 5 mg/kg single i.m., day 7): 24.1 ± 2 g
Animal body weight, g (M ± SD) (males, 5 mg/kg single i.m., day 14): 25.4 ± 2. g
Animal body weight, g (M ± SD) (males, 50 mg/kg single i.m., day 0): 22.4 ± 2.1 g
Animal body weight, g (M ± SD) (males, 50 mg/kg single i.m., day 7): 23.7 ± 2 g
Animal body weight, g (M ± SD) (males, 50 mg/kg single i.m., day 14): 25.4 ± 2. g
Animal body weight, g (M ± SD) (males, 500 mg/kg single i.m., day 0): 22.6 ± 2.2 g
Animal body weight, g (M ± SD) (males, 500 mg/kg single i.m., day 7): 24.2 ± 1 g
Animal body weight, g (M ± SD) (males, 500 mg/kg single i.m., day 14): 26.2 ± 1. g
local irritant effect (mice and rats, after a single intramuscular injection): does not cause a local irritant effect
death during the 14-day observation period (mice, 5, 50 and 500 mg/kg single i.m.): No death occurred
LD50 (mice, single intramuscular administration, exceeds the maximal tested dose): > 500 mg/kg
induction of microscopic changes in organs [5]: the identified changes were not induced by the studied substance
Animals with changes, Number: Liver, Plethora of sinusoidal capillaries ([5]; 20 mg/kg): 5
Animals with changes, Number: Lung, Thickening of the interalveolar septa (total) ([5]; 20 mg/kg): 1
Cell survival rate, % ([6]; 0.5 mcg/mL): 95%
Number of cells × 10^3/mL ([6]; 0.5 mcg/mL): 633 10^3/mL
Cell survival rate, % ([6]; 1.0 mcg/mL): 94%
Number of cells × 10^3/mL ([6]; 1.0 mcg/mL): 599 10^3/mL
Cell survival rate, % ([6]; 5.0 mcg/mL): 96%
Number of cells × 10^3/mL ([6]; 5.0 mcg/mL): 530 10^3/mL
Cell survival rate, % ([6]; 10.0 mcg/mL): 92%
Number of cells × 10^3/mL ([6]; 10.0 mcg/mL): 500 10^3/mL
Cell survival rate, % ([6]; 100 mcg/mL): 70%
Number of cells × 10^3/mL ([6]; 100 mcg/mL): 433 10^3/mL
Percent body weight change ([7]; day 1 post infection): +9%
Percent body weight change ([7]; day 2 post infection): +14%
Percent body weight change ([7]; day 3 post infection): +21%
Percent body weight change ([7]; day 4 post infection): +26%
Percent body weight change ([7]; day 5 post infection): +30%
Percent body weight change ([7]; day 7 post infection): +27%
Percent body weight change ([7]; day 9 post infection): +38%
Percent body weight change ([7]; day 11 post infection): +64%
Percent body weight change ([7]; day 13 post infection): +74%
Average lifetime (days) ([7]; observation day 16): 12.4 (1-7 d., 1-9 d., 2-11 d) days
Death rate (%) ([7]; observation day 16): 40%
